In US9149038B2, “4-amino-6-(heterocyclic)picolinates and 6-amino-2-(heterocyclic)pyrimidine-4-carboxylates and their use as herbicides” (Dow AgroSciences LLC, priority 2013, dated 2015):
Like-named read-outs stand apart in the source and are kept apart here.

Tests used:
[1] = tested on: Key Broadleaf Weed and Crop Species; experiment: Post-Emergent Test II: postemergent herbicidal activity, visual rating after 14 d (Table 7); assay type: in vivo; conditions: post-emergence, 336 h; for pest or weed control at 35 g/ha: 35 g ai/ha; for pest or weed control at 70 g/ha: 70 g ai/ha; for pest or weed control at 140 g/ha: 140 g ai/ha
In short: (§1)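 Greenhouse-grown plants at the first or second true leaf stage (7-21 d, ~15 h photoperiod, 23-29° C day) were sprayed with compound in acetone/DMSO-based aqueous spray containing crop oil concentrate and Triton X-155 at 187 L/ha. Injury versus untreated plants was rated visually after 14 d on a 0-100 scale.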

[2] = tested on: Key Grass and Sedge Weeds as well as Grass Crops; experiment: Post-Emergent Test II: postemergent herbicidal activity, visual rating after 14 d (Table 8); assay type: in vivo; conditions: post-emergence, 336 h; for pest or weed control at 35 g/ha: 35 g ai/ha; for pest or weed control at 70 g/ha: 70 g ai/ha; for pest or weed control at 140 g/ha: 140 g ai/ha
In short: as §1

[3] = ABUTH: velvetleaf (Abutilon theophrasti), read-out: Visual Growth Reduction (%) 14 Days After Application ABUTH
[4] = AMARE: redroot pigweed (Amaranthus retroflexus), read-out: Visual Growth Reduction (%) 14 Days After Application AMARE
[5] = BRSNN: oilseed rape, canola (Brassica napus), read-out: Visual Growth Reduction (%) 14 Days After Application BRSNN
[6] = CHEAL: lambsquarters (Chenopodium album), read-out: Visual Growth Reduction (%) 14 Days After Application CHEAL
[7] = EPHHL: wild poinsettia (Euphorbia heterophylla), read-out: Visual Growth Reduction (%) 14 Days After Application EPHHL
[8] = HELAN: sunflower (Helianthus annuus), read-out: Visual Growth Reduction (%) 14 Days After Application HELAN
[9] = barnyardgrass (Echinochloa crus-galli), read-out: Visual Growth Reduction (%) 14 Days After Application, ECHCG
[10] = giant foxtail (Setaria faberi), read-out: Visual Growth Reduction (%) 14 Days After Application, SETFA
[11] = maize, corn (Zea mays), read-out: Visual Growth Reduction (%) 14 Days After Application, ZEAMX
[12] = rice (Oryza sativa), read-out: Visual Growth Reduction (%) 14 Days After Application, ORYSA
[13] = wheat, spring (Triticum aestivum), read-out: Visual Growth Reduction (%) 14 Days After Application, TRZAS
[14] = yellow nutsedge (Cyperus esculentus), read-out: Visual Growth Reduction (%) 14 Days After Application, CYPES

**Q.** How did the pest or weed control at 35 g/ha [1, 3] turn out when `COC(=O)c1nc(-c2ccc3c(c2)COC3)c(F)c(N)c1Cl` [Compound 103, Methyl 4-amino-3-chloro-6-(1,3-dihydroisobenzofuran-5-yl)-5-fluoropicolinate] was run?
**A.** 0 to 29%

**Q.** What about the pest or weed control at 70 g/ha [1, 3] of the same molecule?
**A.** 0 to 29%

**Q.** And the pest or weed control at 140 g/ha [1, 3]?
**A.** 0 to 29%

**Q.** What about the pest or weed control at 35 g/ha [1, 4] of the same molecule?
**A.** 0 to 29%

**Q.** And the pest or weed control at 70 g/ha [1, 4]?
**A.** 0 to 29%

**Q.** What about the pest or weed control at 140 g/ha [1, 4] of the same molecule?
**A.** 0 to 29%

**Q.** And the pest or weed control at 35 g/ha [1, 5]?
**A.** 0 to 29%

**Q.** What about the pest or weed control at 70 g/ha [1, 5] of the same molecule?
**A.** 0 to 29%

**Q.** And the pest or weed control at 140 g/ha [1, 5]?
**A.** 0 to 29%

**Q.** And the pest or weed control at 35 g/ha [1, 6]?
**A.** 45 to 59%

**Q.** What about the pest or weed control at 70 g/ha [1, 6] of the same molecule?
**A.** 85 to 94%

**Q.** What about the pest or weed control at 140 g/ha [1, 6] of the same molecule?
**A.** 95 to 100%

**Q.** And the pest or weed control at 35 g/ha [1, 7]?
**A.** 0 to 29%

**Q.** And the pest or weed control at 70 g/ha [1, 7]?
**A.** 0 to 29%

**Q.** And the pest or weed control at 140 g/ha [1, 7]?
**A.** 0 to 29%

**Q.** And the pest or weed control at 35 g/ha [1, 8]?
**A.** 75 to 84%

**Q.** And the pest or weed control at 70 g/ha [1, 8]?
**A.** 75 to 84%

**Q.** And the pest or weed control at 140 g/ha [1, 8]?
**A.** 75 to 84%

**Q.** What about the pest or weed control at 35 g/ha [2, 9] of the same molecule?
**A.** 0 to 29%

**Q.** What about the pest or weed control at 70 g/ha [2, 9] of the same molecule?
**A.** 0 to 29%

**Q.** And the pest or weed control at 140 g/ha [2, 9]?
**A.** 0 to 29%

**Q.** And the pest or weed control at 35 g/ha [2, 10]?
**A.** 0 to 29%

**Q.** What about the pest or weed control at 70 g/ha [2, 10] of the same molecule?
**A.** 0 to 29%

**Q.** What about the pest or weed control at 140 g/ha [2, 10] of the same molecule?
**A.** 0 to 29%

**Q.** And the pest or weed control at 35 g/ha [2, 11]?
**A.** 0 to 29%

**Q.** What about the pest or weed control at 70 g/ha [2, 11] of the same molecule?
**A.** 0 to 29%

**Q.** What about the pest or weed control at 140 g/ha [2, 11] of the same molecule?
**A.** 0 to 29%

**Q.** And the pest or weed control at 35 g/ha [2, 12]?
**A.** 0 to 29%

**Q.** And the pest or weed control at 70 g/ha [2, 12]?
**A.** 0 to 29%

**Q.** And the pest or weed control at 140 g/ha [2, 12]?
**A.** 0 to 29%

**Q.** What about the pest or weed control at 35 g/ha [2, 13] of the same molecule?
**A.** 0 to 29%

**Q.** And the pest or weed control at 70 g/ha [2, 13]?
**A.** 0 to 29%

**Q.** What about the pest or weed control at 140 g/ha [2, 13] of the same molecule?
**A.** 0 to 29%

**Q.** What about the pest or weed control at 35 g/ha [2, 14] of the same molecule?
**A.** 0 to 29%

**Q.** What about the pest or weed control at 70 g/ha [2, 14] of the same molecule?
**A.** 0 to 29%

**Q.** What about the pest or weed control at 140 g/ha [2, 14] of the same molecule?
**A.** 0 to 29%
